#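 Grown in 96-well plates, cells were treated for 48 hours with each compound at five concentrations. Insufficient inhibition: endpoint recorded as highest concentration tested. GI50 = concentration required for 50% inhibition of growth. TGI is the concentration that stops growth completely.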
# Assays:
# Test in all cases: NCI-60 cell line screen, 48 h
# U251 CNS = system: U251 CNS
# MDA-MB-231 breast = system: MDA-MB-231 breast
# RXF 393 renal = system: RXF 393 renal
# HT29 colon = system: HT29 colon
# SK-MEL-5 melanoma = system: SK-MEL-5 melanoma
# HS 578T breast = system: HS 578T breast
# NCI-H460 lung = system: NCI-H460 lung
# M14 melanoma = system: M14 melanoma
# UACC-62 melanoma = system: UACC-62 melanoma
# CCRF-CEM leukemia = system: CCRF-CEM leukemia
SMILES,GI50 (U251 CNS),TGI (U251 CNS),GI50 (MDA-MB-231 breast),TGI (MDA-MB-231 breast),GI50 (RXF 393 renal),TGI (RXF 393 renal),GI50 (HT29 colon),TGI (HT29 colon),GI50 (SK-MEL-5 melanoma),TGI (SK-MEL-5 melanoma),GI50 (HS 578T breast),TGI (HS 578T breast),GI50 (NCI-H460 lung),TGI (NCI-H460 lung),GI50 (M14 melanoma),TGI (M14 melanoma),GI50 (UACC-62 melanoma),TGI (UACC-62 melanoma),GI50 (CCRF-CEM leukemia),TGI (CCRF-CEM leukemia)
Nc1ccc(-c2ccc3ncc4ccc(=O)n(-c5cccc(C(F)(F)F)c5)c4c3c2)cn1,< 0.01 µM,0.948 µM,< 0.0141 µM,2.21 µM,< 0.01 µM,0.0443 µM,0.115 µM,12 µM,< 0.01 µM,0.0767 µM,< 0.01 µM,< 0.0253 µM,< 0.01 µM,3.18 µM,< 0.01 µM,0.266 µM,< 0.01 µM,0.026 µM,< 0.01 µM,1.93 µM
CCn1c(=N)sc2nc3ccccc3n2c1=O,–,> 100 µM,–,> 100 µM,–,> 100 µM,–,> 100 µM,–,> 100 µM,–,> 100 µM,–,> 100 µM,–,> 100 µM,–,> 100 µM,–,> 100 µM
COc1cc(-c2cc3ncccc3c3[nH]c(=O)c4cccnc4c23)cc(OC)c1OC,0.603 µM,> 100 µM,1.54 µM,> 100 µM,0.818 µM,26.2 µM,0.397 µM,> 100 µM,0.51 µM,3.17 µM,0.914 µM,> 100 µM,0.433 µM,> 100 µM,0.425 µM,> 100 µM,0.496 µM,30.3 µM,0.623 µM,> 100 µM
O=C(O)Cn1ccc2ccccc21,> 100 µM,> 100 µM,> 100 µM,> 100 µM,> 100 µM,> 100 µM,> 100 µM,> 100 µM,> 100 µM,> 100 µM,> 100 µM,> 100 µM,> 100 µM,> 100 µM,> 100 µM,> 100 µM,> 100 µM,> 100 µM,> 100 µM,> 100 µM
COc1ccc2c(c1)O/C(=C\c1cccc(OCC(=O)Nc3nc(C)c(C)s3)c1)C2=O,1.62 µM,3.08 µM,0.95 µM,–,1.06 µM,2.75 µM,2.73 µM,> 21 µM,2 µM,> 100 µM,5.24 µM,> 41.5 µM,11.6 µM,> 100 µM,0.175 µM,0.368 µM,16.5 µM,> 100 µM,0.312 µM,3.07 µM
NCCOc1ncccc1/C=C1\c2ccccc2-c2ccc([N+](=O)[O-])cc21,0.0269 µM,0.303 µM,0.206 µM,0.613 µM,0.171 µM,0.443 µM,0.0898 µM,1.04 µM,0.101 µM,0.253 µM,0.255 µM,1.26 µM,< 0.0104 µM,0.154 µM,0.0439 µM,0.322 µM,0.0784 µM,0.386 µM,0.0181 µM,0.0973 µM
O=C1Nc2ccccc2/C1=C/c1cn(CC(O)Cn2cc(/C=C3\C(=O)Nc4ccccc43)c3ccccc32)c2ccccc12 (centres undefined),1.52 µM,2.92 µM,1.27 µM,2.71 µM,2.04 µM,3.75 µM,1.42 µM,3.52 µM,1.98 µM,3.82 µM,2.43 µM,7.85 µM,0.488 µM,1.88 µM,1.32 µM,2.83 µM,1.64 µM,3.16 µM,2.84 µM,13.4 µM
Cc1nc(Sc2nc3ccc([N+](=O)[O-])cc3s2)sc1C,1.99 µM,7.9 µM,1.84 µM,11 µM,1.22 µM,3.39 µM,1.64 µM,4.23 µM,1.67 µM,4.58 µM,3.03 µM,16.4 µM,0.894 µM,6.26 µM,1.82 µM,4.14 µM,1.22 µM,3.49 µM,0.477 µM,6.18 µM
Cc1c(C)c2c(c(C)c1OCC(=O)O)CC[C@@](C)(CCC[C@@H](C)CCC[C@@H](C)CCCC(C)C)O2,52.7 µM,133 µM,95.2 µM,218 µM,61.6 µM,137 µM,58.3 µM,140 µM,58 µM,122 µM,89 µM,229 µM,55.3 µM,168 µM,41.1 µM,114 µM,61.1 µM,126 µM,27.1 µM,189 µM
Cn1cc(C2=C(c3ccccc3C(F)(F)F)C(=O)NC2=O)c2ccccc21,7.06 µM,> 25 µM,17.4 µM,> 25 µM,5.17 µM,16.7 µM,6.22 µM,> 25 µM,4.74 µM,13 µM,5.36 µM,> 25 µM,9.18 µM,> 25 µM,19.8 µM,> 25 µM,9.97 µM,> 25 µM,4.86 µM,> 25 µM
O=C(Nc1ccc2c(c1)OCCO2)C(=O)c1c[nH]c2ccccc12,1.63 µM,15.9 µM,1.37 µM,14.7 µM,2.59 µM,11.1 µM,0.81 µM,3.78 µM,1.47 µM,> 100 µM,1.72 µM,22.9 µM,1.3 µM,> 100 µM,0.839 µM,> 100 µM,1.43 µM,> 100 µM,1.08 µM,> 100 µM
COc1ccc(-c2nn3ncccc3c2-c2ccnc(Nc3ccc4c(c3)OCCO4)n2)cc1,14.3 µM,> 25 µM,6.55 µM,> 25 µM,3.27 µM,> 25 µM,4.29 µM,> 23.8 µM,6.26 µM,> 25 µM,10.2 µM,> 25 µM,8.74 µM,> 25 µM,8.55 µM,> 25 µM,5.23 µM,> 25 µM,6.07 µM,> 25 µM
Cc1noc(C)c1-c1cnc2c(-c3ccc(C(=O)O)cc3)cn([C@@H](C)c3ccccn3)c2c1,3.38 µM,> 100 µM,0.518 µM,> 100 µM,2.4 µM,34.6 µM,0.386 µM,> 100 µM,0.644 µM,4.07 µM,0.188 µM,> 100 µM,6.07 µM,> 100 µM,0.629 µM,> 100 µM,0.0954 µM,20.2 µM,2.73 µM,> 100 µM
